Where a name gives a salt, the structure may show the parent alone. Read-outs that look alike come from different tables or passages of the source.
Tests used:
[1] = system: MRSA-337371; assay: Post-antibiotic effect (PAE) test, viable counting; assay type: cell-based, methicillin-resistant Staphylococcus aureus; details: 1×, 2×, 4× and 8× MIC, 1 h exposure
Protocol: The PAE of EDT against MRSA-337371 was determined using a standard viable counting method. We selected 1 × , 2 × , 4 × and 8 × MICs of EDT and tiamulin (0.0313 and 0.5 μg/mL, respectively), to conduct PAE test on MRSA strains. The strains (1 × 10^5 CFU/mL) were placed in MHB broth test tubes containing the above four concentrations of EDT and tiamulin, respectively, and cultured in a shaking bed at 37 °C for 1 h, followed by centrifuging for 10 min at 4000 r/min. The supernatants were discarded and the precipitations were dissolved with 2 mL normal saline to centrifuge. The same procedure was repeated three times. The final bacterial precipitates were taken and cultured in MHB broth with the initial concentration of 5.5 Log CFU/mL at 37 °C in a shaking bed. Samples were then taken at 0, 1, 2, 3, 4, 5, 6, 8, 12, 18 and 24 h to dilute 10–100,000 times and the 10 μL dilutions were evenly smear on MHA plate medium to culture at 37 °C for 48 h. Finally, the average numbers of colonies on the plates were obtained and the PAE values were calculated as hour using equation PAE = T − C, in which T was the time required for the increase of 1 log10 CFU/mL after the removal of drugs and C was the time required for the number of MRSA in the control tube to increase by 1 log10 CFU/mL. Experiments were performed in triplicate.

[2] = Cytotoxicity assay (CCK-8), HepG2; assay type: cell-based; details: human, HepG2 cells, read-out: cell viability
Protocol: Cytotoxicity of EDT and tiamulin was studied against human hepatocellular carcinoma cells (HepG2) and human embryonic kidney 293T (HEK293T) cells following a protocol as published in our earlier reports[41],[42]. Cells were counted and inoculated into 96-well plates with approximately10^5 cells density for incubating 24 h at 37 °C. […] The same procedure was repeated three times. The percentages of cell viability were calculated by the formula: Cell viability (%) = [Asample ‒ Anegative]/[Apositve ‒ Anegative] × 100%.

[3] = system: clinical isolates of MRSA; assay: MIC by broth serial-dilution against 48 clinical isolates of MRSA; assay type: cell-based, methicillin-resistant Staphylococcus aureus; details: Staphylococcus aureus; for MIC: MRSA
Protocol: The tests against 48 clinical isolates of MRSA from dairy farms in 4 different provinces in China[37] were conducted in triplicate, using broth serial-dilution method in 96-well plates according to CLSI reference methods. Briefly, EDT and tiamulin fumarate used as referent drug were dissolved in 25% dimethyl sulfoxide (DMSO) to a solution with concentration of 64 μg/mL. The obtained 100 μL solutions were then added into the first column of the 96-well plate, and diluted to the tenth well with serial twofold dilutions. The last two wells were used as positive controls. The 100 μL bacterial suspension was diluted in MHB to give a final organism density of to 10^5 ~ 10^6 colony-forming unit (CFU) per 1 mL and added to all the wells, followed by incubating at 37 °C for 24 h. […] The results were expressed as an average of the MICs obtained from three independent experiments.

[4] = system: GFP expression in S. aureus ATCC 29,213; assay: Green fluorescent protein (GFP) inhibition assay; assay type: cell-based, Staphylococcus aureus; details: 1 and 4 μM, co-incubation 4 h, fluorescence microscopy
Protocol: The inhibition assay against GFP expression was performed according to our previous report[41] with minor modification. Plasmids carried erythromycin resistant genes were labeled with GFP and electrotransformed into S. aureus. After screenings using erythromycin, S. aureus strain expressing GFP was then obtained and grown to mid-logarithmic phase, followed by collecting centrifugally and re-suspending with PBS buffer. The obtained suspensions were co-incubated with EDT and tiamulin with the final concentrations of 1 and 4 μM, respectively, for 4 h at 37 °C. The cells were subsequently collected by centrifugation to perform imaging using fluorescence microscopy after re-suspending with PBS buffer.

## C=C[C@]1(C)C[C@@H](OC(=O)CSCCN(CC)CC)[C@]2(C)[C@H](C)CC[C@]3(CCC(=O)[C@H]32)[C@@H](C)[C@@H]1O [tiamulin, Tiamulin fumarate, reference compound]
[1]
  PAE values, concentration dependence: increased PAE values in a concentration-dependent manner
[2]; HepG2, 100 μM
  viability at 6 h, 100 µM: 60.8%
[2]; HepG2, 200 μM
  viability at 6 h, 200 µM: 55.6%
[3]; range over 48 clinical isolates of MRSA, read-out: MIC values against 48 strains
  MIC: 0.125 to 1 µg/mL
[3]; strain CX1, read-out: MIC
  MIC: 0.5 µg/mL
[3]; strain CX2, read-out: MIC
  MIC: 0.5 µg/mL
[3]; strain CX5, read-out: MIC
  MIC: 0.5 µg/mL
[3]; strain CX6, read-out: MIC
  MIC: 0.5 µg/mL
[3]; strain CX7, read-out: MIC
  MIC: 0.5 µg/mL
[3]; strain CX9, read-out: MIC
  MIC: 1 µg/mL
[3]; strain HG1, read-out: MIC
  MIC: 0.25 µg/mL
[3]; strain HG2, read-out: MIC
  MIC: 0.5 µg/mL
[3]; strain HG3, read-out: MIC
  MIC: 0.5 µg/mL
[3]; strain HG4, read-out: MIC
  MIC: 0.5 µg/mL
[3]; strain HG5, read-out: MIC
  MIC: 0.5 µg/mL
[3]; strain HG6, read-out: MIC
  MIC: 0.5 µg/mL
[3]; strain HG7, read-out: MIC
  MIC: 0.5 µg/mL
[3]; strain QY4, read-out: MIC
  MIC: 0.5 µg/mL
[3]; strain QY5, read-out: MIC
  MIC: 0.5 µg/mL
[3]; strain QY6, read-out: MIC
  MIC: 0.5 µg/mL
[3]; strain QY8, read-out: MIC
  MIC: 0.5 µg/mL
[3]; strain QY10, read-out: MIC
  MIC: 0.5 µg/mL
[3]; strain SH3, read-out: MIC
  MIC: 0.5 µg/mL
[3]; strain SH4, read-out: MIC
  MIC: 0.5 µg/mL
[3]; strain SH6, read-out: MIC
  MIC: 0.5 µg/mL
[3]; strain SH7, read-out: MIC
  MIC: 0.5 µg/mL
[3]; strain SH8, read-out: MIC
  MIC: 0.25 µg/mL
[3]; strain SH9, read-out: MIC
  MIC: 0.5 µg/mL
[3]; strain SH10, read-out: MIC
  MIC: 0.5 µg/mL
[3]; strain SH11, read-out: MIC
  MIC: 0.5 µg/mL
[3]; strain SH12, read-out: MIC
  MIC: 0.5 µg/mL
[3]; strain SH13, read-out: MIC
  MIC: 0.5 µg/mL
[3]; strain SH14, read-out: MIC
  MIC: 0.125 µg/mL
[3]; strain SH15, read-out: MIC
  MIC: 0.5 µg/mL
[3]; strain SX5, read-out: MIC
  MIC: 0.5 µg/mL
[3]; strain SX6, read-out: MIC
  MIC: 1 µg/mL
[3]; strain SX7, read-out: MIC
  MIC: 0.5 µg/mL
[3]; strain SX8, read-out: MIC
  MIC: 0.5 µg/mL
[3]; strain SX9, read-out: MIC
  MIC: 0.5 µg/mL
[3]; strain SX10, read-out: MIC
  MIC: 0.5 µg/mL
[3]; strain SX16, read-out: MIC
  MIC: 1 µg/mL
[3]; strain SX17, read-out: MIC
  MIC: 0.5 µg/mL
[3]; strain SX18, read-out: MIC
  MIC: 0.5 µg/mL
[3]; strain ZY1, read-out: MIC
  MIC: 0.5 µg/mL
[3]; strain ZY2, read-out: MIC
  MIC: 0.5 µg/mL
[3]; strain ZY3, read-out: MIC
  MIC: 0.25 µg/mL
[3]; strain ZY4, read-out: MIC
  MIC: 0.5 µg/mL
[3]; strain ZY5, read-out: MIC
  MIC: 0.5 µg/mL
[3]; strain ZY6, read-out: MIC
  MIC: 1 µg/mL
[3]; strain ZY7, read-out: MIC
  MIC: 0.5 µg/mL
[3]; strain ZY8, read-out: MIC
  MIC: 1 µg/mL
[3]; strain ZY9, read-out: MIC
  MIC: 0.25 µg/mL
[3]; at 0.0625 µg/mL, 48 clinical isolates of MRSA, read-out: strains inhibited
  inhibition at 0.0625 µg/mL: 0%
[4]
  inhibition of GFP expression (green fluorescence intensity): inhibited GFP expression
